This is an account of results in patent US5684018A, “Acyloxyisopropyl carbamates as prodrugs for amine drugs” (Merck & Co., Inc., priority 1994, dated 1997).

Molecules are shown by their SMILES.

Data set [1] in a line: Regeneration of the parent drug by rat plasma hydrolysis of the prodrug. The data set is classed as in vitro ADME. The following applies: 37° C., initial prodrug concentration 6.3×10^-5 M, n=2, HPLC. The protocol: The rate of hydrolysis of the acetoxyisopropyl carbamate prodrug of [3(R)-2-(piperidine-4-yl)ethyl]-2-piperidone-1-[(3R)-methyl-5-ketopentanoic acid]by plasma enzymes was studied by measuring the formation of the parent amine drug at 37° C. in rat plasma. The reaction was initiated by adding an aqueous solution of the carbamate prodrug to the reaction medium pre-equilibrated at 37° C. in a thermostated water bath. The initial concentration of the prodrug in rat plasma was 6.3×10^-5 M. Samples (100 μl) were withdrawn at intervals and mixed with saturated ammonium sulfate (200 μl), vortex mixed for 10 seconds and centrifuged for 5 minutes at 14,000 g to precipitate plasma proteins. The supernatant was injected directly and analyzed by HPLC on a 20 cm Brownlee Spheri-5 RP-18 column combined with a similar 3 cm guard column. The mobile phase used for the analysis was 0.01M K2 HPO4 buffer (adjusted to pH 6.5 with phosphoric acid) containing 3% acetonitrile at a flow rate of 1 mL/min. The retention time under these conditions for the amine drug was approximately 15 minutes. The concentration of the compounds was measured at 210 nm using a variable wavelength. UV detector.

For data set [2] the following is noted: oral administration to rats; cited from earlier work.

On to `CC(=O)OC(C)(C)OC(=O)N1CCC(CC[C@@H]2CCCN(CC(=O)N[C@H](C)CC(=O)O)C2=O)CC1` [acetoxyisopropyl carbamate prodrug, {3(R)-2-{1-[2(Acetoxy)isopropoxycarbonylpiperidine-4yl]-ethyl}piperidone-1}-acetyl-3(R)-methyl-β-alanine], for which the half-life at 63 µM in data set [1] is 32 ± 6 min.

As for `CCn1cc(C(=O)O)c(=O)c2cc(F)c(N3CCN(Cc4oc(=O)oc4C)CC3)cc21` [alkylated nofloxacin], the “regeneration of the parent drug” value in data set [2] is “regenerated the parent drag”.
